This assay deals with T1, 5HT UPTAKE (Rattus norvegicus, UniProt P31652).
T1 construct: Crude synaptosomal preparations were isolated after differential centrifugation; from tissue; host or cells: rat cerebral cortex, crude synaptosomes
In words: Inhibition of synaptosomal uptake of 3H-serotonin (3H-5HT) in vitro, rat cerebral cortex synaptosomes. The assay is classed as biochemical, Sprague-Dawley rats. As to conditions: concentration needed to inhibit the uptake of 3H-5HT by 50%; rat cortical synaptosomes, 37°C, 5 min, 50 nM 3H-5HT. Here is the method:
This general procedure is set forth in Wong et al., Drug Development Research 6:397-403 (1985).
Male Sprague-Dawley rats (110-150 g) from Harlan Industries (Cumberland, IN) were fed Purina Chow ad libitum for at least 3 days before being used in the studies. Rats were killed by decaptiation. Whole brains were removed and dissected. Cerebral cortex was homogenized in 9 volumes of a medium containing 0.32 M sucrose and 10 mM glucose. Crude synaptosomal preparations were isolated after differential centrifugation at 1,000 g for 10 min. and 17,000 g for 28 min. The final pellets were suspended in the same medium and kept in ice until use within the same day.
Synaptosomal uptake of ³H-serotonin (³H-5-hydroxytryptamine, ³H-5HT) was determined as follows: Cortical synaptosomes (equivalent to 1 mg of protein) were incubated at 37°C for 5 min in 1 ml of Krebs-bicarbonate medium containing also 10 mM glucose, […], 1 mM ascorbic acid, 0.17 mM EDTA and 50 nM ³H-5HT. The reaction mixture was immediately diluted with 2 ml of ice-chilled Krebs-bicarbonate buffer and filtered under vacuum with a cell harvester (Brandel, Gaithersburg, MD). Filters were rinsed twice with approximately 5 ml of ice-chilled 0.9% saline and were transferred to a counting vial containing 10 ml of scintillation fluid (PCS, Amersham, Arlington Heights, IL). Radioactivity was measured by a liquid scintillation spectrophotometer. Accumulation of ³H-5HT at 4°C represented the background and was subtracted from all samples.
The results of the evaluation of various compounds of the present invention are set forth below in Table I. In Table I, the first column provides the Example Number of the compound evaluated; the next 7 columns identify the structure of the compound evaluated when taken with the formula set forth in the heading; the next-succeeding column identifies the salt form of the compound evaluated; and the final column provides the amount of the test compound expressed in nanomolar concentration needed to inhibit the uptake of ³H-5HT by 50%, and is indicated in Table I as IC₅₀. Numbers in parentheses, if any, represent percent inhibition at 1000 nM.

Structures can show the parent of a compound that is named as a salt.

T1 sequence (P31652 whole entry): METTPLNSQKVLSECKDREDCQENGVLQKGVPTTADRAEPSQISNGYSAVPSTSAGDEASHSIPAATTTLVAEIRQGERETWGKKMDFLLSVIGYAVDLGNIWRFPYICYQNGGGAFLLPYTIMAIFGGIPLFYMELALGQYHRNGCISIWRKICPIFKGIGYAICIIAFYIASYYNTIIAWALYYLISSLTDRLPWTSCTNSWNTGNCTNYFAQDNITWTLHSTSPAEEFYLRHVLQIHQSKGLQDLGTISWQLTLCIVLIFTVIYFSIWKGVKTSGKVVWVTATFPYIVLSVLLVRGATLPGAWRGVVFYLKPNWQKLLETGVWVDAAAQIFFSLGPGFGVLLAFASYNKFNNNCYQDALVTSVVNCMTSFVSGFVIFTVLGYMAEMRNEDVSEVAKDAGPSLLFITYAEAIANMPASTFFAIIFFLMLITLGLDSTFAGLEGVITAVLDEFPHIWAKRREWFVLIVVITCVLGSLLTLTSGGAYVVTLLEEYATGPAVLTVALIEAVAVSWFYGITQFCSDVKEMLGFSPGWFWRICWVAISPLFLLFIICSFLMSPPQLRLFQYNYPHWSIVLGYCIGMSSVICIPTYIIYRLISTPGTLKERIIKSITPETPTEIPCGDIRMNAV

What is called IC50 is the concentration that inhibits the measured activity by half. On to `Oc1ccc2c(c1)CCC(N1CCNCC1)C2` (centres unmarked) [Example 37, 2-Piperazinyl-6-hydroxy-1,2,3,4-tetrahydronaphthalene dihydrobromide], for which half-maximal inhibition (IC50) was put at 1000 nM.
`CSc1ccc2c(c1)CCC(N1CCN(C)CC1)C2` (centres unmarked) [Example 39, 2-(N-Methylpiperizinyl)-6-methylthio-1,2,3,4-tetrahydronaphthalene dihydrochloride]: the IC50 is 434 nM.
`CC1c2c(Cl)cccc2CCC1N1CCNCC1` (centres unmarked) [Example 12, 1-Methyl-2-piperazinyl-8-chloro-1,2,3,4-tetrahydronaphthalene dihydrochloride] gave an IC50 of 270 nM.
In turn, `Clc1cccc2c1CC(N1CCCNCC1)CC2` (centres unmarked) [Example 5, 2-(Homopiperazinyl)-8-chloro-1,2,3,4-tetrahydronaphthalene dimaleate] gave a 50% inhibitory concentration (IC50) of 260 nM.
In the case of `CC1c2ccc(Br)cc2CCC1N1CCNCC1` (centres unmarked) [Example 40, 1-Methyl-2-piperazinyl-6-bromo-1,2,3,4-tetrahydronaphthalene dihydrochloride], the midpoint of inhibition, the IC50, lay at 34 nM.
Turning to `Clc1cccc2c1CC(N1CCNCC1)CC2` (centres unmarked) [Example 3, 2-Piperazinyl-8-chloro-1,2,3,4-tetrahydronaphthalene dimaleate], the half-inhibitory concentration (IC50) is 83 nM.
With `C[C@@H]1c2ccc(Cl)cc2CC[C@@H]1N1CCNCC1` (racemic) [Example 33, cis-1-Methyl-2-piperazinyl-6-chloro-1,2,3,4-tetrahydronaphthalene dihydrochloride], it took 12 nM to reach half-maximal inhibition (IC50).
`COc1ccc(Br)c2c1CC(N1CCNCC1)CC2` (centres unmarked) [Example 16, 2-Piperazinyl-5-bromo-8-methoxy-1,2,3,4-tetrahydronaphthalene dihydrochloride] had a half-inhibitory concentration (IC50) of 3.7 nM.

(Values after patent EP0343830A2, “Ring-substituted 2-amino-1,2,3,4-tetrahydronaphthalenes” (ELI LILLY AND COMPANY, priority 1988, dated 1989).)
